In patent publication US20250206789A1, “ZINC FINGER DEGRON SEQUENCES” (STICHTING HET NEDERLANDS KANKER INSTITUUT-ANTONI VAN …, priority 2022, published 2025):

Assays:
[1] = test system: multiple myeloma patients; conditions: high-dose (25 mg per day) cohort; cited from earlier work
Primary human T cells = test: Cytokine production and degranulation of CDK4 TCR T cells with Zap70-PD1-degron CRASH-IT switch co-cultured with NKIRTIL006 melanoma cells, thalidomide titration; format: cell-based; conditions: as compared to single hybrid, dual zinc finger prior art degron; IFNγ, IL2, TNFα, LAMP-1
Description: FIG. 1: Sensitivity of zinc finger degrons to IMiD can be improved by alteration of the second zinc finger sequence. (A) Schematic representation of a panel of zinc finger degrons containing the ZFP91 ZF4 beta hairpin and IKZF1 ZF2 alpha helix as a hybrid first zinc finger. […] (B-E) Primary human T cells modified with the HLA class I restricted CDK4 TCR plus a Zap70-PD1-degron CRASH-IT switch, in which the degron sequence is selected from (A), were pretreated with indicated concentrations of thalidomide. Data depict intracellular IFNγ, IL2, TNFα, and cell surface LAMP1 expression of CDK4 TCR+, EGFP high, CD8+ T cells upon co-culture with NKIRTIL006 melanoma cells in the continued presence of indicated concentrations of thalidomide. Error bars represent standard deviation (n=2). Data are representative of two independent experiments.
To our knowledge, the possibility of using a hybrid zinc finger as the second zinc finger as a means to improve the overall sensitivity of the dual zinc finger degron system was not tested before. To investigate whether the second zinc finger (IKZF1 ZF3) of the single hybrid, dual zinc finger prior art degron can be replaced with other zinc finger sequences while preserving or improving sensitivity towards IMiDs, we created a panel of CRASH-IT switches containing the zinc finger degrons shown in FIG. 1. […]

[2] = target: IMID/CRBN E3 ligase complex (Homo sapiens, UniProt Q96SW2); conditions: as compared to non-hybrid ZFP91 ZF4 and IKZF1 ZF2 zinc finger degrons; cited from earlier work
IMID/CRBN E3 ligase complex, sequence (Q96SW2 whole entry, one chain of several): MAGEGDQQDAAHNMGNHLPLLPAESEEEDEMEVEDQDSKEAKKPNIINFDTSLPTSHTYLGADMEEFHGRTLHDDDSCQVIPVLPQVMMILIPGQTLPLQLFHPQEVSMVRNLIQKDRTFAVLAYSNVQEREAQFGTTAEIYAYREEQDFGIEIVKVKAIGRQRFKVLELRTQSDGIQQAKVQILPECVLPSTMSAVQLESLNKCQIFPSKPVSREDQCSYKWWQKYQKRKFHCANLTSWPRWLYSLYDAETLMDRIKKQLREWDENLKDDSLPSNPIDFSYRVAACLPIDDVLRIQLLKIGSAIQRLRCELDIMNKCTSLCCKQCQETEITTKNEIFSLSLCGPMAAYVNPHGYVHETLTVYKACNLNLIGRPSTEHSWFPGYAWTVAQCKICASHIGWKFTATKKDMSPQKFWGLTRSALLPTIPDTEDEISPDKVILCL

Jurkat cells = test: SynFinger library screen: CD69 expression of CRASH-IT (Zap70-PD1-degron) transduced Jurkat cells with or without lenalidomide, enrichment index from NGS reads; format: cell-based; conditions: Jurkat cells expressing CRASH-IT switch, 50 nM lenalidomide
Description: […] Jurkat cells were transduced with the SynFinger library (SynFinger containing CRASH-IT switches) at a 12.8% transduction efficiency and sorted for high EGFP expression to enrich transduced cells. For quality control of the SynFinger transduced Jurkat cells, SynFinger sequences were amplified and analyzed by NGS. 10 randomly selected SynFinger encoding DNA sequences or DNA sequences encoding the same SynFinger amino acid sequences but contain 2 nucleotide mismatches due to alternative codon usage were used to assess ability to distinguish true SynFinger sequences from noise in the NGS data. 10/10 SynFinger encoding full-nucleotide sequence match sequences were observed within NGS data whereas the 2 nucleotide mismatch containing sequences were not detected.
Jurkat cells expressing the SynFinger library were treated with 50 nM lenalidomide (a suboptimal dose that activates only ˜50% of cells expressing a CRASH-IT switch containing the parental double hybrid degron in Jurkat cells, as compared to a maximally effective 1000 nM lenalidomide dose) or were mock treated for 24 hours, and subsequently activated with anti-CD3/anti-CD28 antibodies in the presence or absence of 50 nM lenalidomide for 5 hours. Afterwards, cells were stained with IR dye (1:400) and anti-CD69-PE (1:200). Cells were sorted for live (IR dye negative), EGFP high end CD69 high (top 5%) or CD69 low (bottom 5%) expression using Aria Fusion cytometers.
Subsequently, cells were washed with PBS, and cell pellets were frozen at −20° C. until DNA extraction. Genomic DNA was isolated using the DNeasy Blood & Tissue Kit (Qiagen) according to the manufacturer's instructions, using 5×10^6 cells per column. DNA was eluted in 22 μl RNAse free water. Deep sequencing adapters and indexes were added to SynFinger encoding DNA sequences using PCR amplification. Briefly, 3 μg genomic DNA (20 μl), indexed forward and reverse primers (10 μM, 2.5 μl each) and 25 μl NEBNext® High-Fidelity 2×PCR Master Mix were added to the PCR reaction. An optimized PCR reaction (98° C. for 30 s, (98° C. for 10 s, 56° C. for 10 s, 72° C. for 5 s)×25 cycles, 72° C. for 3 min was performed using Eppendorf PCR cyclers.
Indexed PCR products were run on agarose gel, relative DNA concentrations were estimated by measuring band intensity, and 12 indexed PCR reaction products were mixed per MiSeq chip. To increase sequence diversity, samples were mixed with 25% PhiX DNA. In total, 2 MiSeq chips were used (100 bp, single read). To distinguish genuine SynFinger sequences from sequencing errors, results were filtered using a reference list of actual sequences used in SynFinger library design (100% codon match). Sequences with a very low number of reads (sum of all samples below 500 reads) were excluded from analysis.
To identify SynFingers that improve sensitivity of CRASH-IT switches towards lenalidomide while preserving or improving stringency of switch mediated control of T cell activation in the absence of lenalidomide, an enrichment index (EI) value was calculated for each sequence as described below, and SynFingers were ranked according to their EI, with a low EI indicating a SynFinger with desired properties.
CD69-HI and […] read counts from top 100 SynFingers were compared with read counts from the parental double hybrid degron using a two-sided Fisher's exact test to determine enrichment of CD69-HI cells in the presence of lenalidomide and enrichment of CD69-LO cells in the absence of lenalidomide.
To further improve the sensitivity of double hybrid degron towards IMiDs, we performed a high throughput screen using a library of ˜50,200 CRASH-IT variants that encode either single or double amino acid substitutions at the indicated positions of the first hybrid zinc finger sequence, thereby changing 18 amino acids of this zinc finger into any amino acid except cysteine (FIG. 3). […]

Compound	toxicity in maintenance therapy [1]	sensitivity of the CRASH-IT switch towards thalidomide (Primary human T cells)	sensitivity towards IMiD induced degradation [2]	cells activated at 50 nM lenalidomide as compared to maximally effective 1000 nM lenalidomide dose (Jurkat cells)
Nc1cccc2c1CN(C1CCC(=O)NC1=O)C2=O (centres unmarked) [lenalidomide]	dose reductions due to toxicity, in particular neutropenia, were frequent	–	–	–
LQCEICGFTCRQKGNLLRHIKLH [single hybrid, single zinc finger degron, ZFP91 ZF4 beta hairpin-IKZF1 ZF2 alpha helix, no second zinc finger, reference compound]	–	reduced thalidomide sensitivity	increase sensitivity	–
LQCEICGFTCRQKGNLLRHIKLHSGEKPFKCHLCNYACRRKDSVVAHKAKSH [double hybrid degron, ZFP91 ZF4 beta hairpin-IKZF1 ZF2 alpha helix plus IKZF1 ZF3 beta hairpin-ZFP91 ZF5 alpha helix]	–	improved the sensitivity	–	~50%
